# Assay results as given in ChEMBL document CHEMBL5303711, “ECBD screening data for assay EOS300108” (2023).
# Structures can show the parent of a compound that is named as a salt. The source made the active and inactive calls. How the calls were made is not given here.
# Experiment: Cytotoxicity activity against human HepG2 cells assessed by CellTiter-Glo luminescent cell viability assay.
# Assay type: toxicity, cell-based
# Parameters: assay stage confirmatory assay, source tissue liver
# Details: HepG2 cells, read-out: IC50 relative
row,Structure (SMILES),CC50
1,O=c1c2ccccc2sn1CN1CCN(c2ccc(C(F)(F)F)cn2)CC1,8.6 µM (active)
2,Cc1ccc(C)c(-n2sc3cc(F)ccc3c2=O)c1,6.5 µM (active)
3,CCc1c2c(nc3ccc(OC(=O)N4CCC(N5CCCCC5)CC4)cc13)-c1cc3c(c(=O)n1C2)COC(=O)[C@]3(O)CC [IRINOTECAN],10.1 µM (active)
4,CC(C)(C)NC(=O)[C@@H]1C[C@@H]2CCCC[C@@H]2CN1CC(O)[C@H](Cc1ccccc1)NC(=O)[C@@H](CC(N)=O)NC(=O)c1ccc2ccccc2n1 (some centres not stated),15.7 µM (inactive)
5,O=C(Oc1c(Cl)cc(Cl)c2cccnc12)c1ccco1,8 µM (active)
6,CCN(CC)S(=O)(=O)c1ccc(C(=O)Cn2ncc(Cl)c(Cl)c2=O)cc1,2 µM (active)
7,CCS(=O)(=O)N1CCc2ccc(NC(=O)Nc3ccc(Cl)cc3)cc21,14.3 µM (inactive)
8,CC(=O)N1c2ccc(S(=O)(=O)N3CCOCC3)cc2CC1C(=O)NCCN1CCCCCC1 (configuration not stated),50 µM (inactive)
9,COc1ccc(Nc2nccc(-c3ccncc3)n2)cc1,4.7 µM (active)
10,CN(C)c1nc2c(Br)c(Br)c(Br)c(Br)c2[nH]1,50 µM (inactive)
11,COc1ccc(C)cc1CN(C)C(=O)CCN1C(=O)COc2ccccc21,5.1 µM (inactive)
13,Oc1ccc(CN2CCc3ccccc3C2)cc1,3.4 µM (active)
14,O=c1[nH]ncc(NCc2ccc(OC[C@H]3CCCO3)cc2)c1Cl,4.2 µM (inactive)
15,COCCN1CCCC(CNC2CCN(c3ccccc3Cl)CC2)C1 (configuration not stated),5.2 µM (active)
16,NCC(=O)Nc1ccc(-n2nc(C(F)(F)F)cc2-c2ccc3c(ccc4ccccc43)c2)cc1 [AR-12],50 µM (inactive)
17,CCn1cc(-c2ccnc3[nH]c(-c4cccc(CN(C)C)c4)cc23)c(-c2ccc(NC(=O)N(C)C)cc2)n1 [GSK-1070916],2.8 µM (active)
18,O=C1c2ccccc2C(=O)N1Cn1ncc(Cl)c(Cl)c1=O,11.5 µM (active)
19,CC1CCc2c(sc3ncnc(NN)c23)C1 (configuration not stated),20.5 µM (inactive)
20,C[C@@H](Oc1cc(-n2cnc3ccc(CN4CCN(C)CC4)cc32)sc1C(N)=O)c1ccccc1C(F)(F)F [GSK-461364],3.7 µM (active)
21,COc1ccc2c(c1)c(C1=C(c3c[nH]c4ccccc34)C(=O)NC1=O)cn2CCCN(C)C,4.7 µM (active)
22,CNC(=O)c1cccc(-c2ccc3c(N4CCOC[C@@H]4C)nc(N4CCOC[C@@H]4C)nc3n2)c1 [VISTUSERTIB],0.2 µM (active)

row,Structure (SMILES),CC50
1,O=c1cc(N2CCOCC2)oc2c(-c3cccc4c3sc3ccccc34)cccc12,7.1 µM (active)
2,Nc1nc(Nc2ccc3c(c2)OCCO3)nc2ccccc12,8.7 µM (active)
3,O=C(c1ccncc1)N1CCC2(CC1)CC(Cc1nc(-c3ccncc3)no1)CCO2 (configuration not stated),5.2 µM (active)
4,C=CC(=O)Nc1cc2c(Nc3ccc(F)c(Cl)c3)ncnc2cc1OCCCN1CCOCC1 [CANERTINIB],50 µM (inactive)
5,CS(=O)(=O)CCNCc1ccc(-c2ccc3ncnc(Nc4ccc(OCc5cccc(F)c5)c(Cl)c4)c3c2)o1,6.1 µM (active)
6,CO[C@H]1CC[C@H](N2C(=O)CNc3ncc(-c4ccc(C(C)(C)O)nc4)nc32)CC1 [ONATASERTIB],6 µM (active)
7,CC(C)(C)c1ccc(CSc2cnn(C(C)(C)C)c(=O)c2Cl)cc1 [PYRIDABEN],0.3 µM (active)
8,Cc1cc(C)cc(-n2ncc3c(OCC(=O)N4CCN(C(=O)c5ccco5)CC4)ncnc32)c1,3.6 µM (active)
9,O=S1(=O)C[C@H](NCCc2c[nH]c3ccccc23)[C@@H](S(=O)(=O)c2cccs2)C1,11.6 µM (inactive)
10,COc1cccc(NC(=O)N2CCN(c3ccnc(N4CCCCC4)n3)CC2)c1,11.5 µM (active)
11,C[C@@H]1CNCCN1S(=O)(=O)c1cccc(Br)c1,50 µM (inactive)
12,CC(C)n1nc(-c2ccc3oc(N)nc3c2)c2c(N)ncnc21 [SAPANISERTIB],0.2 µM (active)
13,O[C@H]1C[C@@H](c2cc(N3CCC(Oc4ccccc4Cl)CC3)ncn2)C1,5.6 µM (active)
14,CC(C)n1ncnc1NC(=O)c1cccc(C(F)(F)F)c1O,5.6 µM (active)
15,CCCCNc1nc(-c2cc(C)ccn2)cs1,6.3 µM (active)
16,COc1ccc(C(N)=O)cc1NC(=O)c1cc(Br)c[nH]1,1.2 µM (active)
17,O=C(Cn1ncc(Cl)c(Cl)c1=O)N1CCC[C@H]1c1ccc2c(c1)OCCCO2,7.1 µM (active)
18,CC(Cc1ccc(O)c(O)c1)C(C)Cc1ccc(O)c(O)c1 (configuration not stated) [NORDIHYDROGUAIARETIC ACID],10.3 µM (inactive)
20,Cc1cccnc1C(NC(=O)CCOc1ccccc1)C1CC1 (configuration not stated),36.5 µM (inactive)
21,CN1CCC(c2cc(-c3ccncc3)c(-c3ccc(F)cc3)[nH]2)CC1,9.2 µM (active)
22,O=C(c1c[nH]c(-c2ccccn2)c1)c1ccccc1O,12.6 µM (inactive)

row,Structure (SMILES),CC50
1,COc1ccc2nc(NC(=O)N(C)Cc3nc(C)cs3)sc2c1,12.7 µM (inactive)
2,COc1ccc(OC2CCN(CC[C@H]3CCCCN3C)CC2)cc1,11.2 µM (inactive)
3,CC(=O)N1CCCSc2ccc(S(=O)(=O)N3CCN(c4ccc(F)cc4)CC3)cc21,7.5 µM (active)
4,CCN(CC)CCCNC(=O)C1CCN(c2nc3ccccc3n(Cc3ccccc3)c2=O)CC1,6.4 µM (active)
5,Cc1c(O)ccc2c(CN3CCN(c4ccc(F)cc4)CC3)cc(=O)oc12,24.8 µM (inactive)
6,COc1nc(OCc2cccc(-c3ccccc3)c2C)ccc1CNCCNC(C)=O,4 µM (active)
7,Cc1cc(Nc2nc(N[C@@H](C)c3ccc(F)cc3)c(C#N)cc2F)n[nH]1,2.7 µM (active)
8,CN(C)CCNC(=O)Cn1c(Cc2ccccc2)nn(-c2ccc(Cl)cc2)c1=O,11.7 µM (active)
9,CC(=O)N1CCCSc2ccc(S(=O)(=O)NCCCc3ccccc3)cc21,12.2 µM (active)
10,CCc1ccc(-c2cc3c(=O)n(CC(=O)NCCCN4CCCC4)nc(C)n3n2)cc1,11.4 µM (active)
11,Cc1cccc2c3c(ccc12)C1=C(C(=O)C3=O)[C@@H](C)CO1 [DIHYDROTANSHINONE I],1.8 µM (active)
12,CC[C@H](CO)Nc1nc(NCc2ccccc2)c2ncn(C(C)C)c2n1 [SELICICLIB],7.8 µM (active)
13,O=C(CCCN1CCC(O)(c2ccc(Cl)cc2)CC1)c1ccc(F)cc1 [HALOPERIDOL],9.6 µM (active)
14,CON(C)C(=O)N1N=C(c2cc(F)ccc2F)S[C@@]1(CCCN)c1ccccc1 [FILANESIB],11 µM (active)
15,COc1c(C)ncnc1NCc1cccc(C(F)(F)F)c1,2.9 µM (active)
16,CCCCc1nc(-c2ccc(OCCCN(CC)CC)cc2)cn1-c1ccc(Oc2ccc(Cl)cc2)cc1 [AZELIRAGON],1.2 µM (active)
17,CCn1c(NC(=O)c2ccc(OC)c(OC)c2)nc2cc(C#N)ccc21,2.3 µM (active)
18,CCOc1ccc(NC(=O)c2nc(S(C)(=O)=O)ncc2Br)cc1,1.6 µM (active)
19,CCOc1ccc(S(=O)(=O)N2CC(C)CC(C)C2)cc1C (configuration not stated),17 µM (inactive)
20,CC(CNC(=O)C1CCN(C)CC1)Cc1cccc2ccccc12 (configuration not stated),11.2 µM (active)
21,Cc1cc(C#N)cc(C)c1Oc1nc(Nc2ccc(C#N)cc2)nc(N)c1Br [ETRAVIRINE],50 µM (inactive)
22,CCC(C)NC(=O)N1CC(Oc2ccc(-c3noc(-c4ccncc4)n3)cc2)C1 (configuration not stated),3.8 µM (active)

row,Structure (SMILES),CC50
1,CN1C[C@H](CNC(=O)OCc2ccccc2)C[C@@H]2c3cccc4c3c(cn4C)C[C@H]21 [METERGOLINE],6.3 µM (active)
2,Cc1ccc(-c2cccc(CN3[C@@H]4CC[C@H]3[C@H]3CNC[C@H]34)c2)o1,8.8 µM (active)
3,C[C@H]1O[C@@H](O[C@H]2[C@@H](O)C[C@H](O[C@H]3[C@@H](O)C[C@H](O[C@H]4CC[C@@]5(C)[C@H](CC[C@@H]6[C@@H]5C[C@@H](O)[C@]5(C)[C@@H](C7=CC(=O)OC7)CC[C@]65O)C4)O[C@@H]3C)O[C@@H]2C)C[C@H](O)[C@@H]1O [DIGOXIN],0.2 µM (active)
4,CC(C)(CN)c1cccc(-c2cccc(CN)c2)c1,12.3 µM (active)
5,Cc1cc(/C=C/C#N)cc(C)c1Nc1ccnc(Nc2ccc(C#N)cc2)n1 [RILPIVIRINE],11 µM (inactive)
6,CN([C@H]1CCN(c2ccccc2F)C1=O)S(=O)(=O)c1cccc2cnccc12,4.3 µM (active)
7,CNC(=O)c1ccc(Nc2ncc(C(F)(F)F)c(NCc3nccnc3N(C)S(C)(=O)=O)n2)cc1 [DEFACTINIB],1.4 µM (inactive)
8,CCn1c(SCc2cc(=O)n3ccsc3n2)nc2sc(C)c(C)c2c1=O,20.2 µM (inactive)
9,CC[C@@H]([C@H](C)O)n1ncn(-c2ccc(N3CCN(c4ccc(OC[C@@H]5CO[C@@](Cn6cncn6)(c6ccc(F)cc6F)C5)cc4)CC3)cc2)c1=O [POSACONAZOLE],19.6 µM (inactive)
10,CCn1cc(CN2C[C@@H]3C[C@H](NC(C)=O)CN3C(=O)[C@@H]2CC(C)C)c2ccccc21,13.6 µM (inactive)
11,COc1cc(N2CCN(C)CC2)ccc1Nc1ncc2c(n1)N(C)c1ccccc1C(=O)N2,7.5 µM (active)
12,CCCCCCOC(=O)NC(=N)c1ccc(NCc2nc3cc(C(=O)N(CCC(=O)OCC)c4ccccn4)ccc3n2C)cc1 [DABIGATRAN ETEXILATE MESYLATE],10.2 µM (active)
13,Cc1nc(Nc2cnn(C3CCNCC3)c2)nc2c1N(C)C(=O)c1cc3ccccc3cc1N2C,4.5 µM (active)
14,COc1ccc2c(c1)OC(C)(C)CN(C(=O)Nc1nc(C)no1)C2,11.9 µM (active)
15,COc1cc(NS(C)(=O)=O)ccc1Nc1c2ccccc2nc2ccccc12 [AMSACRINE],2.7 µM (active)
16,CC[S+]([O-])c1nc(-c2cccc(OCc3ccccc3)c2)cc(C(F)(F)F)n1 (configuration not stated),5.3 µM (active)
17,CNc1nc(N2CCN(C)CC2)nc2ccccc12,5.5 µM (active)
18,CCCc1ccc(-c2ccc(N(C[C@@H](N)[C@@H](C)CC)C(=O)[C@@H]3C[C@H]3c3ccccn3)cc2)cc1,1.6 µM (active)
19,CNc1cc2c(Nc3cccc(Br)c3)ncnc2cn1,20.5 µM (inactive)
20,COc1cccc(Nc2nc(N3CCN(C)CC3)nc3c2cnn3C)c1,14 µM (inactive)
21,Cn1cc(S(=O)(=O)N2CCCC2)cc1C(=O)Nc1nc(-c2ccccn2)cs1,6.4 µM (inactive)
